Experiments:
[1] = format: physicochemical
Protocol: A composition is prepared for a dilute bathing formulation of xylitol for nasal delivery. The concentration of xylitol in the solution may be 10%-60% by weight/volume. This corresponds to 10-60 grams of xylitol per 100 ml of solution. xylitol is soluble in solution up to 64.2 grams per 100 ml of solution.

Streptococcus pneumonia = settings: during its logarithmic growth phase; cited from earlier work

OC[C@@H](O)[C@H](O)[C@@H](O)CO [xylitol]
soluble in solution [1]: up to 64.2 grams per 100 ml of solution
growth of Streptococcus pneumonia in vitro (Streptococcus pneumonia): inhibits the growth

Reference: US6599883B1, “Nasal delivery of xylitol” (Nastech Pharmaceutical Company, Inc., priority 1998, dated 2003)
